Data from US20260049101A1, “TOPICAL TREATMENT OF SKIN CANCER USING OLIGOPEPTIDES” (BACOBA AG, priority 2022, published 2026).
Numbered stars: 1 amine (or outer) side, 2 acyl side, 3 side chain; on linkers, the order of the positions; unused ones are H or OH. Square brackets hold non-standard residues; d marks the D form. Peptide text beside a SMILES is read from it. * marks the point of attachment. X2 = COc1ccc2nc(C[C@H](N[*:1])C(=O)[*:2])sc2c1; X5 = O=C([C@H](Cc1nc2ccc(F)cc2s1)N[*:1])[*:2]; X4 = C[C@](N[*:1])(C(=O)[*:2])C(F)(F)F; NH(1-CH2NMe2-cBu) = CN(C)CC1(N*)CCC1; Gly(octyl) = CCCCCCCC[C@H](N)C(=O)O; Oxazole4CO(2-Me) = Cc1nc(C(=O)*)co1; X8 = COc1ccc2cc(C(=O)*)c(=O)oc2c1; Benzoyl(4-F) = O=C(c1ccc(F)cc1)*; hCha = N[C@@H](CCC1CCCCC1)C(=O)O; X6 = CC(C)(CN[*:1])C(=O)[*:2]; β3hL = CC(C)C[C@H](N)CC(=O)O; NHCH2CH2NHMe = CNCCN*; Aib = CC(C)(N)C(=O)O; βAla = NCCC(=O)O

System: cutaneous squamous cell carcinoma cell line SCC12
Test: In vitro anti-proliferative assay (resazurin) in SCC12
Assay type: cell-based
Settings: SCC12, 72 hours
Text: Methodology. The cutaneous squamous cell carcinoma cell culture SCC12 was cultivated in keratinocyte-SFM media (KSFM, Cat #17005042, Gibco) supplemented with human recombinant epidermal growth factor 1-53 (EGF 1-53) and bovine pituitary extract (BFE).
Vehicle treated wells were set to 100% viability.

`CC(C)C[C@H](NC(=O)[C@H](CC(C)C)NC(=O)C(C)(C)NC(=O)[C@H](CC(C)C)NC(=O)[C@H](CCC1CCCCC1)NC(=O)[C@@H]1CCCN1C(=O)c1ccc(F)cc1)C(=O)NC(C)(C)C(=O)NCC(C)(C)C(=O)NCCC(=O)NC1(CN(C)C)CCC1` [Compound 21164, (2S)-2-[(2S)-4-cyclohexyl-2-{[(2S)-1-(4-fluorobenzoyl)pyrrolidin-2-yl]formamido}butan-amido]-N-(1-{[(1S)-1-{[(1S)-1-({1-[(2-{[2-({1-[(dimethylamino)methyl]cyclobutyl}carba-moyl)ethyl]carbamoyl}-2,2-dimethylethyl)carbamoyl]-1-methylethyl}carbamoyl)-3-methylbutyl]carbamoyl}1-3-methylbutyl]carbamoyl}-1-methylethyl)-4-methylpentanamide] ({Benzoyl(4-F)}-P[hCha]L[Aib]LL[Aib][X6][βAla]-{NH(1-CH2NMe2-cBu)}) showed an IC50 of 712 nM.

`CC(C)C[C@H](NC(=O)[C@H](CCC1CCCCC1)NC(=O)[C@@H]1CCCN1C(=O)c1ccc(F)cc1)C(=O)NCC(C)(C)C(=O)N[C@@H](CC(C)C)C(=O)N[C@@H](CC(C)C)C(=O)NCC(C)(C)C(=O)NCC(C)(C)C(=O)NCCC(=O)NC1(CN(C)C)CCC1` [Compound 21189, (2S)-2-[(2S)-4-cyclohexyl-2-{[(2S)-1-(4-fluorobenzoyl)pyrrolidin-2-yl]formamido}butan-amido]-N-(2-{[(1S)-1-{[(1S)-1-({2-[(2-{[2-({1-[(dimethylamino)methyl]cyclobutyl}carbamoyl)ethyl]carbamoyl}-2,2-dimethylethyl)carbamoyl]-2,2-dimethylethyl}carbamoyl)-3-methylbutyl]carbamoyl}-3-methylbutyl]carbamoyl}-2,2-dimethylethyl)-4-methylpentanamide] gave an IC50 greater than 10000 nM.

Molecule `Cc1nc(C(=O)N2CCC[C@H]2C(=O)N[C@@H](CCC2CCCCC2)C(=O)N[C@@H](CC(C)C)C(=O)NC(C)(C)C(=O)N[C@@H](CC(C)C)C(=O)N[C@@H](CC(C)C)C(=O)NC(C)(C)C(=O)NC(C)(C)C(=O)NCCC(=O)NC2(CN(C)C)CCC2)co1` [Compound 6025, (2S)-2-[(2S)-4-cyclohexyl-2-{[(2S)-1-(2-methyl-1,3-oxazole-4-carbonyl)pyrrolidin-2-yl]formamido}butanamido]-N-(1-{[(1S)-1-{[(1S)-1-({1-[(1-{[2-({1-[(dimethylamino)methyl]cyclobutyl}carbamoyl)ethyl]carbamoyl}-1-methylethyl)carbamoyl]-1-methylethyl}carbamoyl)-3-methylbutyl]carbamoyl}-3-methylbutyl]carbamoyl}-1-methylethyl)-4-methylpentanamide] ({Oxazole4CO(2-Me)}-P[hCha]L[Aib]LL[Aib][Aib][βAla]-{NH(1-CH2NMe2-cBu)}) has an IC50 of 396 nM.

With `COc1ccc2cc(C(=O)N3CCC[C@H]3C(=O)N[C@@H](CCC3CCCCC3)C(=O)N[C@@H](CC(C)C)C(=O)NC(C)(C)C(=O)N[C@@H](CC(C)C)C(=O)N[C@@H](CC(C)C)C(=O)NC(C)(C)C(=O)NC(C)(C)C(=O)NCCC(=O)NC3(CN(C)C)CCC3)c(=O)oc2c1` [Compound 21287, (2S)-2-[(2S)-4-cyclohexyl-2-{[(2S)-1-(7-methoxy-2-oxo-2H-chromene-3-carbonyl)pyrrolidin-2-yl]formamido}butanamido]-N-(1-{[(1S)-1-{[(1S)-1-({1-[(1-{[2-({1-[(dimethylamino)methyl]cyclobutyl}carbamoyl)ethyl]carbamoyl}-1-methylethyl)carbamoyl]-1-methylethyl}carbamoyl)-3-methylbutyl]carbamoyl}-3-methylbutyl]carbamoyl}-1-methylethyl)-4-methylpentanamide] (X8-P[hCha]L[Aib]LL[Aib][Aib][βAla]-{NH(1-CH2NMe2-cBu)}) the IC50 was 595 nM.

`CCCCCCCC[C@H](NC(=O)[C@@H]1CCCN1C(=O)c1coc(C)n1)C(=O)N[C@@H](CC(C)C)C(=O)NC(C)(C)C(=O)N[C@@H](CC(C)C)C(=O)N[C@@H](CC(C)C)C(=O)NC(C)(C)C(=O)NC(C)(C)C(=O)NCCC(=O)NCCNC` [Compound 7058, (2S)-2-{[(2S)-1-(2-methyl-1,3-oxazole-4-carbonyl)pyrrolidin-2-yl]formamido}-N-[(1S)-3-methyl-1-[(1-methyl-1-{[(1S)-3-methyl-1-{[(1S)-3-methyl-1-{[1-methyl-1-({1-methyl-1-[(2-{[2-(methylamino)ethyl]carbamoyl}ethyl)carbamoyl]ethyl}carbamoyl)ethyl]carbamoyl}butyl]carbamoyl}butyl]carbamoyl}ethyl)carbamoyl]butyl]decanamide] ({Oxazole4CO(2-Me)}-P[Gly(octyl)]L[Aib]LL[Aib][Aib][βAla]-NHCH2CH2NHMe) gave an IC50 of 717 nM.

`CC(C)C[C@H](NC(=O)[C@H](CCC1CCCCC1)NC(=O)[C@@H]1CCCN1C(=O)c1ccc(F)cc1)C(=O)NC(C)(C)C(=O)N[C@@H](CC(C)C)C(=O)N[C@@H](CC(C)C)C(=O)NC(C)(C)C(=O)N[C@@](C)(C(=O)NCCC(=O)NC1(CN(C)C)CCC1)C(F)(F)F` [Compound 21359, (2S)-2-[(2S)-4-cyclohexyl-2-{[(2S)-1-(4-fluorobenzoyl)pyrrolidin-2-yl]formamido}butanamido]-N-(1-{[(1S)-1-{[(1S)-1-[(1-{[(1S)-1-{[2-({1-[(dimethylamino)methyl]cyclobutyl}carbamoyl)ethyl]carbamoyl}-2,2,2-trifluoro-1-methylethyl]carbamoyl}-1-methylethyl)carbamoyl]-3-methylbutyl]carbamoyl}-3-methylbutyl]carbamoyl}-1-methylethyl)-4-methylpentanamide] ({Benzoyl(4-F)}-P[hCha]L[Aib]LL[Aib][X4][βAla]-{NH(1-CH2NMe2-cBu)}) was tested, and the IC50 was 360 nM.

Work on `CC(C)C[C@H](NC(=O)CC(C)(C)NC(=O)[C@H](CC(C)C)NC(=O)[C@H](CCC1CCCCC1)NC(=O)[C@@H]1CCCN1C(=O)c1ccc(F)cc1)C(=O)N[C@@H](CC(C)C)C(=O)NC(C)(C)CC(=O)NC(C)(C)CC(=O)NCCC(=O)NC1(CN(C)C)CCC1` [Compound 21368, (2S)-2-[(2S)-4-cyclohexyl-2-{[(2S)-1-(4-fluorobenzoyl)pyrrolidin-2-yl]formamido}butan-amido]-N-(1-{[(1S)-1-{[(1S)-1-({1-[(1-{[2-({1-[(dimethylamino)methyl]cyclobutyl}carba-moyl)ethyl]carbamoyl}-2-methylpropan-2-yl)carbamoyl]-2-methylpropan-2-yl}carbamoyl)-3-methylbutyl]carbamoyl}-3-methylbutyl]carbamoyl}-2-methylpropan-2-yl)-4-methylpentanamide] yielded an IC50 greater than 10000 nM.

For `CC(C)C[C@@H](CC(=O)NC(C)(C)C(=O)NC(C)(C)C(=O)NCCC(=O)NC1(CN(C)C)CCC1)NC(=O)C[C@H](CC(C)C)NC(=O)C(C)(C)NC(=O)C[C@H](CC(C)C)NC(=O)[C@H](CCC1CCCCC1)NC(=O)[C@@H]1CCCN1C(=O)c1ccc(F)cc1` [Compound 21315, (3S)-3-[(2S)-4-cyclohexyl-2-{[(2S)-1-(4-fluorobenzoyl)pyrrolidin-2-yl]formamido}butanamido]-N-(1-{[(2S)-1-{[(2S)-1-({1-[(1-{[2-({1-[(dimethylamino)methyl]cyclobutyl}carbamoyl)ethyl]carbamoyl}-1-methylethyl)carbamoyl]-1-methylethyl}carbamoyl)-4-methylpentan-2-yl]carbamoyl}-4-methylpentan-2-yl]carbamoyl}-1-methylethyl)-5-methylhexanamide] ({Benzoyl(4-F)}-P[hCha][β3hL][Aib][β3hL][β3hL][Aib][Aib][βAla]-{NH(1-CH2NMe2-cBu)}), the IC50 was 3100 nM.

`COc1ccc2nc(C[C@H](NC(=O)[C@@H]3CCCN3C(=O)c3ccc(F)cc3)C(=O)N[C@@H](CC(C)C)C(=O)NC(C)(C)C(=O)N[C@@H](CC(C)C)C(=O)N[C@@H](CC(C)C)C(=O)NC(C)(C)C(=O)NC(C)(C)C(=O)NCCC(=O)NC3(CN(C)C)CCC3)sc2c1` [Compound 7844, (2S)—N-(1-{[(1S)-1-{[(1S)-1-({1-[(1-{[2-({1-[(dimethylamino)methyl]cyclobutyl}carbamoyl)ethyl]carbamoyl}-1-methylethyl)carbamoyl]-1-methylethyl}carbamoyl)-3-methylbutyl]carbamoyl}-3-methylbutyl]carbamoyl}-1-methylethyl)-2-[(2S)-2-{[(2S)-1-(4-fluorobenzoyl)pyrrolidin-2-yl]formamido}-3-(6-methoxy-1,3-benzothiazol-2-yl)propanamido]-4-methylpentanamide] ({Benzoyl(4-F)}-P[X2]L[Aib]LL[Aib][Aib][βAla]-{NH(1-CH2NMe2-cBu)}) gave an IC50 of 546 nM.

Work on `CC(C)C[C@H](NC(=O)[C@H](Cc1nc2ccc(F)cc2s1)NC(=O)[C@@H]1CCCN1C(=O)c1ccc(F)cc1)C(=O)NC(C)(C)C(=O)N[C@@H](CC(C)C)C(=O)N[C@@H](CC(C)C)C(=O)NC(C)(C)C(=O)NC(C)(C)C(=O)NCCC(=O)NC1(CN(C)C)CCC1` [Compound 7848, (2S)—N-(1-{[(1S)-1-{[(1S)-1-({1-[(1-{[2-({1-[(dimethylamino)methyl]cyclobutyl}carbamoyl)ethyl]carbamoyl}-1-methylethyl)carbamoyl]-1-methylethyl}carbamoyl)-3-methylbutyl]carbamoyl}-3-methylbutyl]carbamoyl}-1-methylethyl)-2-[(2S)-3-(6-fluoro-1,3-benzothiazol-2-yl)-2-{[(2S)-1-(4-fluorobenzoyl)pyrrolidin-2-yl]formamido}propanamido]-4-methylpentanamide] ({Benzoyl(4-F)}-P[X5]L[Aib]LL[Aib][Aib][βAla]-{NH(1-CH2NMe2-cBu)}) yielded an IC50 of 182 nM.
